# “And” between values parts separate entries of the source, which are not always exact repeats. Equal values may be shown once. Inconclusive results and toxic doses are left out.
# Tested on: BDF1 mice, P388 leukemia ip, median survival T/C
# Test: NCI In Vivo Anticancer Drug Screen. Data for tumor model P388 Leukemia (intraperitoneal) in B6D2F1 (BDF1) mice
# Conditions: endpoint: median survival time, higher = longer survival
# How it was run: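 Survival ratio, drug arm over vehicle arm, in mice with a transplanted tumour.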
# [1] = dose: 25.0 mg/kg/injection, schedule: Q01DX009 (ip), vehicle: saline
# [2] = dose: 35.0 mg/kg/injection, schedule: Q01DX009 (ip), vehicle: saline
# [3] = dose: 100.0 mg/kg/injection, schedule: Q01DX009 (ip), vehicle: saline
# [4] = dose: 200.0 mg/kg/injection, schedule: Q01DX009 (ip), vehicle: saline
# [5] = dose: 50.0 mg/kg/injection, schedule: Q01DX009 (ip), vehicle: saline with Tween-80
# [6] = dose: 100.0 mg/kg/injection, schedule: Q01DX009 (ip), vehicle: saline with Tween-80
# [7] = dose: 200.0 mg/kg/injection, schedule: Q01DX009 (ip), vehicle: saline with Tween-80
# [8] = dose: 6.25 mg/kg/injection, schedule: Q04DX003 (ip), vehicle: saline
# [9] = dose: 12.5 mg/kg/injection, schedule: Q04DX003 (ip), vehicle: saline
# [10] = dose: 25.0 mg/kg/injection, schedule: Q01DX009 (ip), vehicle: saline with Tween-80
# [11] = dose: 25.0 mg/kg/injection, schedule: Q04DX003 (ip), vehicle: saline
# [12] = dose: 6.25 mg/kg/injection, schedule: Q01DX009 (ip), vehicle: saline
# [13] = dose: 12.5 mg/kg/injection, schedule: Q01DX009 (ip), vehicle: saline
# [14] = dose: 12.5 mg/kg/injection, schedule: Q01DX009 (ip), vehicle: Klucel (hydroxypropylcellulose) (HPC)
# [15] = dose: 25.0 mg/kg/injection, schedule: Q01DX009 (ip), vehicle: Klucel (hydroxypropylcellulose) (HPC)
# [16] = dose: 100.0 mg/kg/injection, schedule: Q01DX009 (ip), vehicle: Klucel (hydroxypropylcellulose) (HPC)
# [17] = dose: 200.0 mg/kg/injection, schedule: Q01DX009 (ip), vehicle: Klucel (hydroxypropylcellulose) (HPC)
# [18] = dose: 400.0 mg/kg/injection, schedule: Q01DX009 (ip), vehicle: Klucel (hydroxypropylcellulose) (HPC)
# [19] = dose: 400.0 mg/kg/injection, schedule: Q01DX009 (ip), vehicle: saline with Tween-80
# [20] = dose: 100.0 mg/kg/injection, schedule: Q04DX003 (ip), vehicle: saline with Tween-80
# [21] = dose: 200.0 mg/kg/injection, schedule: Q04DX003 (ip), vehicle: saline with Tween-80
# [22] = dose: 100.0 mg/kg/injection, schedule: Q04DX003 (ip), vehicle: Klucel (hydroxypropylcellulose) (HPC)
# [23] = dose: 200.0 mg/kg/injection, schedule: Q04DX003 (ip), vehicle: Klucel (hydroxypropylcellulose) (HPC)
# [24] = dose: 400.0 mg/kg/injection, schedule: Q04DX003 (ip), vehicle: Klucel (hydroxypropylcellulose) (HPC)
smiles,measurement,setting,value
O=C(Nc1ccccc1)c1ccc(C(F)(F)F)cc1O,T/C,"dose: 16.5 mg/kg/injection, schedule: Q01DX009 (ip), vehicle: saline",99 % of control
same,T/C,[1],93 % of control
same,T/C,[2],112 % of control
same,T/C,[3],108 % of control
same,T/C,[4],95 % of control
Cc1ccc(S(=O)(=O)OCC2C3CCC2C3)cc1 (stereo unspecified),T/C,[5],101 % of control
same,T/C,[6],107 % of control
same,T/C,[7],107 % of control
Cc1ccc(N2CCN(CCCN3CCN(c4ccccc4Cl)CC3)CC2)cc1,T/C,"dose: 6.25 mg/kg/injection, schedule: Q01DX009 (ip), vehicle: saline with Tween-80",86 % of control
same,T/C,[8],104 % of control
same,T/C,"dose: 12.5 mg/kg/injection, schedule: Q01DX009 (ip), vehicle: saline with Tween-80",95 % of control
same,T/C,[9],100 % of control
same,T/C,[10],100 % of control
same,T/C,[11],104 % of control
Nc1cc(N)cc([N+](=O)[O-])c1,T/C,[12],90 % of control
same,T/C,[8],100 % of control
same,T/C,[13],86 % of control
same,T/C,[9],104 % of control
same,T/C,[11],100 % of control
CCSC1(SCC)C(=O)OC2=C(CCCC2)C1N(C)c1ccccc1 (stereo unspecified),T/C,[5],96 % of control
same,T/C,[6],94 % of control
same,T/C,[7],91 % of control
C[C@@H]1C[C@@]2(C)[C@@H](CC[C@@H]3[C@@H]2CC[C@]2(C)[C@@H](O)CC[C@@H]32)CC1=O,T/C,"dose: 6.25 mg/kg/injection, schedule: Q01DX009 (ip), vehicle: Klucel (hydroxypropylcellulose) (HPC)",109 % of control
same,T/C,[14],109 % of control
same,T/C,[15],109 % of control
CC1OC(OC2C(O)C(O)C(O)C(O)C2O)C(N)CC1N=C(N)C(=O)O (stereo unspecified),T/C,[3],91 % of control
same,T/C,[4],100 % of control
same,T/C,"dose: 400.0 mg/kg/injection, schedule: Q01DX009 (ip), vehicle: saline",116 % of control
CCCOC(=O)c1ccc([N+](=O)[O-])cc1,T/C,[16],95 % of control
same,T/C,[17],100 % of control
same,T/C,[18],100 % of control
O=C(c1cc2c3ccccc3ccc2c2ccccc12)C(Br)Br,T/C,[10],113 % of control
O=c1cn[nH]c(=O)[nH]1,T/C,"dose: 62.5 mg/kg/injection, schedule: Q01DX010 (ip), vehicle: saline",100 % of control
same,T/C,"dose: 125.0 mg/kg/injection, schedule: Q01DX010 (ip), vehicle: saline",100 % of control
same,T/C,"dose: 250.0 mg/kg/injection, schedule: Q01DX010 (ip), vehicle: saline",100 % of control
same,T/C,"dose: 500.0 mg/kg/injection, schedule: Q01DX010 (ip), vehicle: saline",95 % of control
CC1C[N+](C)(C)N=C1[O-] (stereo unspecified),T/C,"dose: 100.0 mg/kg/injection, schedule: Q01DX001 (ip), vehicle: saline",109 % of control
same,T/C,"dose: 200.0 mg/kg/injection, schedule: Q01DX001 (ip), vehicle: saline",90 % of control
same,T/C,"dose: 400.0 mg/kg/injection, schedule: Q01DX001 (ip), vehicle: saline",109 % of control
C=C(COC(C)(C)C)CN(C)C,T/C,"dose: 25.0 mg/kg/injection, schedule: Q01DX009 (ip), vehicle: acetone",92 % of control
same,T/C,"dose: 50.0 mg/kg/injection, schedule: Q01DX009 (ip), vehicle: acetone",100 % of control
same,T/C,"dose: 100.0 mg/kg/injection, schedule: Q01DX009 (ip), vehicle: acetone",96 % of control
COc1ccc(CC(=O)NCCc2ccc3cc(OC)c(OC)cc3c2)cc1OC,T/C,[6],95 % of control
same,T/C,[7],95 % of control
same,T/C,[19],91 % of control
c1ccc(-c2cc(-c3ccccc3)on2)cc1,T/C,[6],95 % of control
same,T/C,[7],109 % of control
same,T/C,[19],104 % of control
COc1ccc(-c2csc(=[N+]3CCCCC3)s2)cc1,T/C,[9],105 % of control
same,T/C,[11],122 % of control
same,T/C,"dose: 50.0 mg/kg/injection, schedule: Q04DX003 (ip), vehicle: saline",87 % of control
COc1ccc(/C(C)=C\C(=O)O)cc1,T/C,[20],100 % of control
same,T/C,[21],100 % of control
same,T/C,"dose: 400.0 mg/kg/injection, schedule: Q04DX003 (ip), vehicle: saline with Tween-80",95 % of control
Cc1cc(=O)[nH]c2c1ccc1[nH]c(=O)cc(C)c12,T/C,"dose: 100.0 mg/kg/injection, schedule: Q01DX001 (ip), vehicle: Klucel (hydroxypropylcellulose) (HPC)",91 % of control
same,T/C,"dose: 200.0 mg/kg/injection, schedule: Q01DX001 (ip), vehicle: Klucel (hydroxypropylcellulose) (HPC)",87 % of control
O=C(OCC#CC#CCOC(=O)c1ccccc1)c1ccccc1,T/C,[16],104 % of control
same,T/C,[22],100 % of control
same,T/C,[17],113 % of control
same,T/C,[23],90 % of control
same,T/C,[18],104 % of control
same,T/C,[24],109 % of control
COC(=O)CC(N)C(=O)OC (stereo unspecified),T/C,[1],102 % of control
same,T/C,"dose: 50.0 mg/kg/injection, schedule: Q01DX009 (ip), vehicle: saline",110 % of control
same,T/C,[3],103 % of control
C[C@]12CCC(=O)C=C1CC[C@H]1[C@@H]3CCC(=O)O[C@@]3(C)CC(=O)[C@@]12F,T/C,[16],111 % of control
same,T/C,[22],90 % of control
same,T/C,[17],96 % of control
same,T/C,[23],109 % of control
same,T/C,[18],100 % of control
same,T/C,[24],86 % of control
CCO/C=C1\SC(=S)N(c2cccc(OC)c2)C1=O,T/C,[20],122 % of control
COc1cc2c(cc1OC)C(=O)C(c1ccc3c(c1)OCO3)CC2 (stereo unspecified),T/C,"dose: 12.5 mg/kg/injection, schedule: Q01DX009 (ip), vehicle: water",98 % of control
same,T/C,"dose: 12.5 mg/kg/injection, schedule: Q04DX003 (ip), vehicle: water",95 % of control
same,T/C,"dose: 25.0 mg/kg/injection, schedule: Q01DX009 (ip), vehicle: water",93 % of control
same,T/C,"dose: 25.0 mg/kg/injection, schedule: Q04DX003 (ip), vehicle: water",101 % of control
same,T/C,"dose: 50.0 mg/kg/injection, schedule: Q01DX009 (ip), vehicle: water",88 % of control and 92 % of control
same,T/C,"dose: 50.0 mg/kg/injection, schedule: Q04DX003 (ip), vehicle: water",100 % of control
same,T/C,"dose: 75.0 mg/kg/injection, schedule: Q01DX009 (ip), vehicle: water",93 % of control
same,T/C,"dose: 100.0 mg/kg/injection, schedule: Q01DX009 (ip), vehicle: water",87 % of control
same,T/C,"dose: 100.0 mg/kg/injection, schedule: Q04DX003 (ip), vehicle: water",88 % of control
same,T/C,"dose: 200.0 mg/kg/injection, schedule: Q01DX009 (ip), vehicle: water",91 % of control
CCN(CC)CCNc1ncnc2c1cnn2-c1ccc(Cl)cc1,T/C,[20],109 % of control
same,T/C,[21],109 % of control
CC(=O)C1C(=O)OC2(C)C(=O)C3=COC(/C=C\C(C)=C/C(C)C)=CC3=CC12 (stereo unspecified),T/C,"dose: 75.0 mg/kg/injection, schedule: Q01DX009 (ip), vehicle: saline with Tween-80",107 % of control
same,T/C,"dose: 150.0 mg/kg/injection, schedule: Q01DX009 (ip), vehicle: saline with Tween-80",151 % of control
O=c1[nH]c(-c2ccccc2)c(-c2ccccc2)[nH]1,T/C,[14],95 % of control
same,T/C,[15],86 % of control
same,T/C,"dose: 50.0 mg/kg/injection, schedule: Q01DX009 (ip), vehicle: Klucel (hydroxypropylcellulose) (HPC)",86 % of control
COc1cc(NC(=O)CC(C)=O)c(OC)cc1Cl,T/C,[6],95 % of control
same,T/C,[7],100 % of control
same,T/C,[19],104 % of control
COc1cc(OC)c(OC)cc1/C=C/c1cc[n+](C)c2ccccc12,T/C,[12],111 % of control
same,T/C,[13],119 % of control
same,T/C,"dose: 16.0 mg/kg/injection, schedule: Q01DX009 (ip), vehicle: saline",111 % of control
same,T/C,[2],119 % of control

# Source: PubChem BioAssay AID328 (DTP/NCI, 2004)
